From ChEMBL document CHEMBL6153039, “Synthesis and structural modification of the natural product Ivesinol to discover novel autophagy activators” (Eur J Med Chem, 2025)
Calls of active or inactive are those of the source. The calls are words filed in the database; no cut-off is given here.

Tests used:
[1] = test system: MCF7; test: Inhibition of autophagy in human MCF7 cells assessed as increase in LC3-I protein level incubated for 4 hrs by Western blotting analysis; assay type: functional, cell-based; conditions: dose 0.1-2 µM
[2] = test system: HEK293; test: Inhibition of autophagy in HEK293 cells assessed as increase in LC3-I protein level incubated for 4 hrs by Western blotting analysis; assay type: functional, cell-based; conditions: Homo sapiens, dose 0.1-2 µM
[3] = test system: HEK293; test: Inhibition of autophagy in HEK293 cells assessed as increase in LC3-II protein level incubated for 4 hrs by Western blotting analysis; assay type: functional, cell-based; conditions: Homo sapiens, dose 0.1-2 µM
[4] = test system: HEK293; test: Inhibition of autophagy in HEK293 cells assessed as increase in p62 protein level incubated for 4 hrs by Western blotting analysis; assay type: functional, cell-based; conditions: Homo sapiens, dose 0.1-2 µM
[5] = test system: MCF7; test: Inhibition of autophagy in human MCF7 cells assessed as increase in LC3-II protein level incubated for 4 hrs by Western blotting analysis; assay type: functional, cell-based; conditions: dose 0.1-2 µM
[6] = test system: MCF7; test: Inhibition of autophagy in human MCF7 cells assessed as increase in p62 protein level incubated for 4 hrs by Western blotting analysis; assay type: functional, cell-based; conditions: dose 0.1-2 µM
[7] = test system: MCF7; test: Induction of autophagy in pEGFP-LC3-labeled human MCF7 cells assessed as formation of autophagosome by measuring the appearance of clustered granules near the nucleus at 10 uM by laser confocal microscopic imaging analysis; assay type: functional, cell-based; conditions: time 1-8 hrs
[8] = test system: MCF7; test: Induction of autophagy in human […] cells assessed as decrease in p62 protein level incubated for 4 hrs by Western blotting analysis; assay type: functional, cell-based; conditions: dose 0.5-10 µM
[9] = test system: MCF7; test: Induction of autophagy in human MCF7 cells assessed as decrease in p62 level at 20 uM incubated for 4 hrs by Western blotting analysis; assay type: functional, cell-based
[10] = test system: MCF7; test: Induction of autophagy in human MCF7 cells expressing pEGFP-LC3 assessed as increase in LC3 puncta at 20 uM incubated for 4 hrs by fluorescence microscopic analysis; assay type: functional, cell-based
[11] = test system: L02; test: Cytotoxicity against human LO2 cells assessed as reduction in cell viability at 0.3125 to 40 uM incubated for 24 hrs by MTT assay; assay type: toxicity, cell-based; conditions: l02, 24 h, dose 0.3125-40 µM
[12] = test system: MCF7; test: Induction of autophagy in wild type human MCF7 cells assessed as increase in LC3-II level at 10 uM incubated for 1 to 4 hrs by Western blotting analysis; assay type: functional, cell-based; conditions: time 1-4 hrs
[13] = test system: MCF7; test: Cytotoxicity against human MCF7 cells assessed as reduction in cell viability at 0.3125 to 40 uM incubated for 24 hrs by MTT assay; assay type: functional, cell-based; conditions: dose 0.3125-40 µM
[14] = test system: MCF7; test: Induction of autophagic flux in wild type human MCF7 cells assessed as increase in LC3-I protein level at 10 uM incubated for 4 hrs in the presence of bafilomycin A1 by Western blotting analysis; assay type: functional, cell-based
[15] = test system: BEAS-2B; test: Cytotoxicity against human BEAS-2B cells assessed as reduction in cell viability at 0.3125 to 40 uM incubated for 24 hrs by MTT assay; assay type: toxicity, cell-based; conditions: dose 0.3125-40 µM
[16] = test system: MCF7; test: Induction of autophagy in wild type human MCF7 cells assessed as increase in LC3-II level at 20 uM incubated for 4 hrs by Western blotting analysis; assay type: functional, cell-based
[17] = test system: MCF7; test: Induction of autophagy in human MCF7 cells assessed as upregulation of LC3-II to LC3-I ratio at 20 uM incubated for 4 hrs by Western blotting analysis; assay type: functional, cell-based
[18] = test system: MCF7; test: Induction of autophagic flux in wild type human MCF7 cells assessed as increase in p62 protein level at 10 uM incubated for 4 hrs in the presence of bafilomycin A1 by Western blotting analysis; assay type: functional, cell-based
[19] = test system: MCF7; test: Induction of autophagy in human MCF7 cells assessed as p62/GAPDH ratio (reference value: 0.96); assay type: functional
[20] = test system: HEK293; test: Induction of autophagy in HEK293 cells assessed as decrease in p62 protein level incubated for 4 hrs by Western blotting analysis; assay type: functional, cell-based; conditions: Homo sapiens, dose 0.5-10 µM
[21] = test system: MCF7; test: Induction of autophagy in wild type human MCF7 cells assessed as decrease in LC3-I level at 20 uM incubated for 4 hrs by Western blotting analysis; assay type: functional, cell-based
[22] = test system: MCF7; test: Induction of autophagy in human […] cells increase in LC3-II protein level incubated for 4 hrs by Western blotting analysis; assay type: functional, cell-based; conditions: dose 0.5-10 µM
[23] = Cytotoxicity against human […] cells assessed as reduction in cell viability at 0.3125 to 40 uM incubated for 24 hrs by MTT assay; assay type: toxicity, cell-based; conditions: dose 0.3125-40 µM
[24] = test system: MCF7; test: Induction of autophagic flux in wild type human MCF7 cells assessed as increase in LC3-II protein level at 10 uM incubated for 4 hrs in the presence of bafilomycin A1 by Western blotting analysis; assay type: functional, cell-based
[25] = test system: MCF7; test: Induction of autophagy in human MCF7 cells assessed as increase in LC3-II/LC3-1 rate at 20 uM incubated for 4 hrs by Western blotting analysis; assay type: functional, cell-based
[26] = test system: MCF7; test: Induction of autophagy in wild type human MCF7 cells assessed as increase in LC3-II level at 10 uM incubated for 6 to 8 hrs by Western blotting analysis; assay type: functional, cell-based; conditions: time 6-8 hrs
[27] = test system: HEK293; test: Induction of autophagy in HEK293 cells assessed as increase in LC3-II protein level incubated for 4 hrs by Western blotting analysis; assay type: functional, cell-based; conditions: Homo sapiens, dose 0.5-10 µM
[28] = test system: MCF7; test: Induction of autophagy in wild type human MCF7 cells assessed as decrease in p62 level at 10 uM incubated for 1 to 4 hrs by Western blotting analysis; assay type: functional, cell-based; conditions: time 1-4 hrs
[29] = test system: MCF7; test: Induction of autophagy in human MCF7 cells assessed as p62/GAPDH ratio (reference value: 1.20); assay type: functional

Q: Which inhibition [1] does the source give for `CCC(=O)c1c(O)c(Cc2c(O)c(C(=O)CC)c(O)c(C(=O)CC)c2O)c(O)c(C(=O)CC)c1O` here?
A: Dose-dependent-effect

Q: And the inhibition [2]?
A: Dose-dependent-effect

Q: And the inhibition [3]?
A: Dose-dependent-effect

Q: And the inhibition [4]?
A: Dose-dependent-effect

Q: What about the inhibition [5] of the same compound?
A: Dose-dependent-effect

Q: And the inhibition [6]?
A: Dose-dependent-effect

Q: With `COc1c(C)c(O)c(C(=O)C(C)C)c(O)c1Cc1c(O)c(C(=O)C(C)C)c(O)c(C)c1OC` as the compound, how does the Activity [7] read?
A: Time-dependent-effect

Q: And the Activity [8]?
A: Dose-dependent-effect

Q: What about the Activity [9] of the same compound?
A: Active

Q: What about the Activity [10] of the same compound?
A: Active; Higher Activity Observed

Q: And the Activity [11]?
A: Toxic

Q: And the Activity [12]?
A: Active

Q: What about the Activity [13] of the same compound?
A: Active

Q: What about the Activity [14] of the same compound?
A: Active

Q: What about the Activity [15] of the same compound?
A: Toxic

Q: And the Activity [16]?
A: Active

Q: And the Activity [17]?
A: Active

Q: What about the Activity [18] of the same compound?
A: Active

Q: What about the Ratio [19] of the same compound?
A: 0.73

Q: And the Activity [20]?
A: Dose-dependent-effect

Q: What about the Activity [21] of the same compound?
A: Active

Q: What about the Activity [22] of the same compound?
A: Dose-dependent-effect

Q: What about the Activity [23] of the same compound?
A: Toxic

Q: And the Activity [24]?
A: Active

Q: What about the Activity [25] of the same compound?
A: Active

Q: What about the Activity [26] of the same compound?
A: inactive

Q: What about the Activity [27] of the same compound?
A: Dose-dependent-effect

Q: What about the Activity [28] of the same compound?
A: Active

Q: Which Ratio [19] does the source give for `COc1c(Cc2c(O)c(C)c(O)c(C(=O)C(C)C)c2OC)c(O)c(C)c(O)c1C(=O)C(C)C` here?
A: 0.92

Q: What does the source list for `CCCCC(=O)c1c(O)c(C)c(OC)c(Cc2c(O)c(C(=O)CCCC)c(O)c(C)c2OC)c1O`?
A: Activity [17]: Active; Ratio [19]: 0.86

Q: What does the source list for `COc1c(C)c(O)c(C(C)=O)c(O)c1Cc1c(O)c(C)c(O)c(C(=O)C(C)C)c1OC`?
A: Activity [17]: Active; Ratio [29]: 0.71

Q: Which Activity [17] does the source give for `COc1c(C)c(O)c(C(C)=O)c(O)c1Cc1c(O)c(C(=O)C(C)C)c(O)c(C)c1OC` here?
A: Active

Q: What about the Ratio [29] of the same compound?
A: 0.84

Q: For `CCCCCc1c(O)c(C)c(OC)c(Cc2c(O)c(CCCCC)c(O)c(C)c2OC)c1O`, which Ratio [19] is on record?
A: 0.97

Q: What does the source list for `CCCCC(=O)c1c(O)c(C)c(O)c(Cc2c(O)c(C)c(O)c(C(=O)CCCC)c2OC)c1OC`?
A: Activity [17]: Active; Ratio [19]: 0.84

Q: With `COc1c(C)c(O)c(C(=O)C(C)(C)C)c(O)c1Cc1c(O)c(C(=O)C(C)(C)C)c(O)c(C)c1OC` as the compound, how does the Ratio [19] read?
A: 1.18

Q: Which Activity [17] does the source give for `COc1c(C)c(O)c(C(=O)C(C)C)c(O)c1Cc1c(O)c(C(=O)C(C)(C)C)c(O)c(C)c1OC` here?
A: Active

Q: And the Ratio [29]?
A: 0.98

Q: With `CCCCC(=O)c1c(O)c(C)c(OC)c(Cc2c(O)c(C(C)=O)c(O)c(C)c2OC)c1O` as the compound, how does the Activity [17] read?
A: Active

Q: What about the Ratio [29] of the same compound?
A: 0.85

Q: Which Ratio [19] does the source give for `COc1c(C)c(O)c(CC(C)C)c(O)c1Cc1c(O)c(CC(C)C)c(O)c(C)c1OC` here?
A: 0.95

Q: For `COc1c(C)c(O)c(C(=O)C(C)C)c(O)c1Cc1c(O)c(C)c(O)c(C(=O)C(C)C)c1OC`, which Activity [17] is on record?
A: Active

Q: And the Ratio [29]?
A: 0.7

Q: For `CCCCC(=O)c1c(O)c(C)c(OC)c(Cc2c(O)c(C)c(O)c(C(=O)CCCC)c2OC)c1O`, which Ratio [29] is on record?
A: 1.05

Q: What does the source list for `CCN(CC)CCCC(C)Nc1ccnc2cc(Cl)ccc12` (stereo unspecified)?
A: Activity [16]: Active; Activity [21]: inactive

Q: With `CCC(=O)c1c(O)c(C)c(OC)c(Cc2c(O)c(C(=O)C(C)C)c(O)c(C)c2OC)c1O` as the compound, how does the Activity [17] read?
A: Active

Q: What about the Ratio [29] of the same compound?
A: 0.86
